Patent US10406239B2, “Water-soluble docetaxel anticancer drug compound and preparation method and use thereof” (NANJING YOUYI MEDICAL TECHNOLOGY CO., LTD, priority 2015, dated 2019)
Marks after values point to notes of the source that are not given here.

Assays:
[1] = system: A549 human lung cancer xenografts; assay: Growth inhibition on A549 human lung cancer xenografts in nude mice; type: in vivo, BALB/c nude mice; conditions: for Tumor inhibition rate: by tumor weight; for Tumor weight: tumors excised after 21 days
Protocol: (§1) The dose volume was 0.4 ml per 20 g, that is, the dose was 96 mg/kg. Then, the solution was diluted to other desired concentrations with 0.9% sodium chloride solution.
(§2) Docetaxel injection, manufactured by Jiangsu Hengrui Pharmaceutical Co., Ltd., lot number: 15011215, specification: 0.5 ml: 20 mg. Formulation method: during use, 20 mg of docetaxel injection of the above specification was added to 1.5 ml of a solvent for the docetaxel injection to give a concentration of 10 mg/ml, and then fully diluted with saline to 1 mg/ml. The dose volume was 0.2 ml per 20 g, that is, the dose was 10 mg/kg.
(§3) BALB/c nude mice, provided by Changzhou Kavens Laboratory Animal Co., Ltd. (Experimental Animal Production License: SOCK (Su) 2011-0003), age: 35-40 days, weight: 18-24 g, female.
A549 human lung cancer xenografts in nude mice was established by inoculating human lung cancer A549 cell line subcutaneously to the axillary fossa of nude mice in an amount of 2*10^6 cells/animal.
(§4) Human lung cancer A549 cell line in logarithmic growth phase was prepared into a cell suspension of 1×10^8 cells/ml under aseptic conditions and subcutaneously inoculated to the right axillary fossa of nude mice in a volume of 0.1 ml. The size of the xenograft in the nude mice was measured with a vernier caliper. After the xenografts grew to 100-300 mm^3, the animals were randomly grouped. The anti-tumor effect of the test agents was dynamically observed by measuring the size of the xenografts. The size of the xenografts was measured once every 3 days. The dose volume was 0.4 ml/20 g. Twenty-one days later, the mice were sacrificed and the tumors were surgically excised and weighed. The tumor volume (TV) is calculated by a formula below: TV=½×a×b^2
The relative tumor volume (RTV) is calculated based on the measurements by a formula: RTV=Vt/V0, where V0 is the measured tumor volume upon being caged (i.e., d0) and Vt is the tumor volume at each measurement. The evaluation index of the anti-tumor activity is relative tumor growth rate T/C (%), which is calculated by a formula below: […]
in which TRTV is the RTV of the treatment group; and CRTV is the RTV of the negative control group.
The tumor inhibition rate is calculated by a formula below: […]
Tweight is the average tumor weight of the treatment group; and Cweight is the average tumor weight of the negative control group.

[2] = Effect on body weight of nude mice with A549 human lung cancer xenografts; type: in vivo, BALB/c nude mice; conditions: for Initial body weight: before dosing; for Final body weight: once every 3 days, end of study (21 days)
Protocol: as §1, §2, §3, §4

[3] = background statement; cited from earlier work
[4] = background statement; cited from earlier work; remark: listed apart in the source
[5] = XBB-023 24 mg/kg, tail vein, once every 3 days, 7 doses, 21 d
[6] = XBB-023 24 mg/kg, tail vein, once every 3 days, 3 d
[7] = XBB-023 24 mg/kg, tail vein, once every 3 days, 6 d
[8] = XBB-023 24 mg/kg, tail vein, once every 3 days, 9 d
[9] = XBB-023 24 mg/kg, tail vein, once every 3 days, 12 d
[10] = XBB-023 24 mg/kg, tail vein, once every 3 days, 15 d
[11] = XBB-023 24 mg/kg, tail vein, once every 3 days, 18 d
[12] = XBB-023 48 mg/kg, tail vein, once every 3 days, 7 doses, 21 d
[13] = XBB-023 48 mg/kg, tail vein, once every 3 days, 3 d
[14] = XBB-023 48 mg/kg, tail vein, once every 3 days, 6 d
[15] = XBB-023 48 mg/kg, tail vein, once every 3 days, 9 d
[16] = XBB-023 48 mg/kg, tail vein, once every 3 days, 12 d
[17] = XBB-023 48 mg/kg, tail vein, once every 3 days, 15 d
[18] = XBB-023 48 mg/kg, tail vein, once every 3 days, 18 d
[19] = XBB-023 96 mg/kg, tail vein, once every 3 days, 7 doses, 21 d
[20] = XBB-023 96 mg/kg, tail vein, once every 3 days, 3 d
[21] = XBB-023 96 mg/kg, tail vein, once every 3 days, 6 d
[22] = XBB-023 96 mg/kg, tail vein, once every 3 days, 9 d
[23] = XBB-023 96 mg/kg, tail vein, once every 3 days, 12 d
[24] = XBB-023 96 mg/kg, tail vein, once every 3 days, 15 d
[25] = XBB-023 96 mg/kg, tail vein, once every 3 days, 18 d
[26] = Docetaxel 10 mg/kg, tail vein, once every 3 days, 7 doses, 21 d
[27] = Docetaxel 10 mg/kg, tail vein, once every 3 days, 3 d
[28] = Docetaxel 10 mg/kg, tail vein, once every 3 days, 6 d
[29] = Docetaxel 10 mg/kg, tail vein, once every 3 days, 9 d
[30] = Docetaxel 10 mg/kg, tail vein, once every 3 days, 12 d
[31] = Docetaxel 10 mg/kg, tail vein, once every 3 days, 15 d
[32] = Docetaxel 10 mg/kg, tail vein, once every 3 days, 18 d

Polyethylene Glycol Monomethyl Ether (Mn=1000) Docetaxel-2′-Diglycolate [XBB-023]
Tumor volume ([1]; XBB-023 24 mg/kg group, 0 d (baseline)): 101.08 ± 20.73 mm^3 | Tumor inhibition rate ([1]; XBB-023 24 mg/kg, once every 3 days, 7 doses, 24 mg/kg): 34.73% | Tumor weight ([1]; XBB-023 24 mg/kg, once every 3 days): 0.78 ± 0.22 g | RTV (relative tumor volume) [1, 5]: 6.39 ± 0.81 | Tumor volume [1, 5]: 660.00 ± 210.71* mm^3 | T/C (relative tumor growth rate) ([1]; XBB-023 24 mg/kg, tail vein, once every 3 days, 7 doses, 21 d, 24 mg/kg): 56.30% | RTV (relative tumor volume) [1, 6]: 2.27 ± 0.52 | T/C (relative tumor growth rate) [1, 6]: 78.90% | Tumor volume [1, 6]: 232.16 ± 79.30* mm^3 | RTV (relative tumor volume) [1, 7]: 2.38 ± 0.37 | T/C (relative tumor growth rate) [1, 7]: 66.13% | Tumor volume [1, 7]: 244.45 ± 80.88** mm^3 | RTV (relative tumor volume) [1, 8]: 2.85 ± 0.39 | T/C (relative tumor growth rate) [1, 8]: 61.19% | Tumor volume [1, 8]: 289.34 ± 82.35** mm^3 | RTV (relative tumor volume) [1, 9]: 3.68 ± 0.51 | T/C (relative tumor growth rate) [1, 9]: 57.80% | Tumor volume [1, 9]: 371.41 ± 95.01** mm^3 | RTV (relative tumor volume) [1, 10]: 4.91 ± 1.58 | T/C (relative tumor growth rate) [1, 10]: 58.72% | Tumor volume [1, 10]: 522.84 ± 249.70* mm^3 | RTV (relative tumor volume) [1, 11]: 5.68 ± 1.66 | T/C (relative tumor growth rate) [1, 11]: 58.60% | Tumor volume [1, 11]: 602.28 ± 288.50** mm^3 | Tumor volume ([1]; XBB-023 48 mg/kg group, 0 d (baseline)): 101.49 ± 18.47 mm^3 | Tumor inhibition rate ([1]; XBB-023 48 mg/kg, once every 3 days, 7 doses, 48 mg/kg): 68.55% | Tumor weight ([1]; XBB-023 48 mg/kg, once every 3 days): 0.38 ± 0.14 g | RTV (relative tumor volume) [1, 12]: 2.90 ± 0.37 | Tumor volume [1, 12]: 299.13 ± 86.76** mm^3 | T/C (relative tumor growth rate) ([1]; XBB-023 48 mg/kg, tail vein, once every 3 days, 7 doses, 21 d, 48 mg/kg): 25.56% | RTV (relative tumor volume) [1, 13]: 1.59 ± 0.35 | T/C (relative tumor growth rate) [1, 13]: 55.23% | Tumor volume [1, 13]: 159.57 ± 38.77** mm^3 | RTV (relative tumor volume) [1, 14]: 1.80 ± 0.18 | T/C (relative tumor growth rate) [1, 14]: 49.90% | Tumor volume [1, 14]: 180.89 ± 31.39** mm^3 | T/C (relative tumor growth rate) [1, 15]: 52.80% | Tumor volume [1, 15]: 245.14 ± 40.82** mm^3 | RTV (relative tumor volume) [1, 16]: 3.02 ± 0.53 | T/C (relative tumor growth rate) [1, 16]: 47.50% | Tumor volume [1, 16]: 302.66 ± 60.48 mm^3 | RTV (relative tumor volume) [1, 17]: 2.61 ± 0.47 | T/C (relative tumor growth rate) [1, 17]: 31.23% | Tumor volume [1, 17]: 264.78 ± 68.29** mm^3 | RTV (relative tumor volume) [1, 18]: 2.50 ± 0.37 | T/C (relative tumor growth rate) [1, 18]: 25.76% | Tumor volume [1, 18]: 257.22 ± 76.37** mm^3 | Tumor volume ([1]; XBB-023 96 mg/kg group, 0 d (baseline)): 102.83 ± 14.74 mm^3 | inhibition rate higher than that in the positive control group ([1]; XBB-023 96 mg/kg versus 10 mg/kg docetaxel): 16.29% | Tumor inhibition rate ([1]; XBB-023 96 mg/kg, once every 3 days, 7 doses, 96 mg/kg): 88.45% | Tumor weight ([1]; XBB-023 96 mg/kg, once every 3 days): 0.14 ± 0.03 g | RTV (relative tumor volume) [1, 19]: 1.46 ± 0.32 | Tumor volume [1, 19]: 146.15 ± 20.51** mm^3 | T/C (relative tumor growth rate) ([1]; XBB-023 96 mg/kg, tail vein, once every 3 days, 7 doses, 21 d, 96 mg/kg): 12.83% | RTV (relative tumor volume) [1, 20]: 1.54 ± 0.31 | T/C (relative tumor growth rate) [1, 20]: 53.47% | Tumor volume [1, 20]: 154.44 ± 15.73** mm^3 | RTV (relative tumor volume) [1, 21]: 1.26 ± 0.15 | T/C (relative tumor growth rate) [1, 21]: 35.11% | Tumor volume [1, 21]: 129.15 ± 19.29** mm^3 | RTV (relative tumor volume) [1, 22]: 1.54 ± 0.22 | T/C (relative tumor growth rate) [1, 22]: 33.18% | Tumor volume [1, 22]: 15628 ± 17.71** mm^3 | RTV (relative tumor volume) [1, 23]: 1.54 ± 0.33 | T/C (relative tumor growth rate) [1, 23]: 24.19% | Tumor volume [1, 23]: 156.91 ± 35.05** mm^3 | RTV (relative tumor volume) [1, 24]: 1.06 ± 0.28 | T/C (relative tumor growth rate) [1, 24]: 12.63% | Tumor volume [1, 24]: 107.31 ± 27.45** mm^3 | RTV (relative tumor volume) [1, 25]: 1.13 ± 0.21 | T/C (relative tumor growth rate) [1, 25]: 11.66% | Tumor volume [1, 25]: 114.16 ± 17.61** mm^3 | effect on the body weight of the experimental mice (in words) ([2]; 48 mg/kg XBB-023, P<0.05): significant effect | effect on the body weight of the experimental mice (in words) ([2]; 96 mg/kg XBB-023, P<0.01): Extremely significant effect | Initial body weight ([2]; XBB-023 24 mg/kg group): 22.17 ± 1.57 g | Final body weight ([2]; XBB-023 24 mg/kg): 23.17 ± 0.90 g | Initial body weight ([2]; XBB-023 48 mg/kg group): 21.33 ± 1.37 g | Final body weight ([2]; XBB-023 48 mg/kg): 20.00 ± 0.82 g | Initial body weight ([2]; XBB-023 96 mg/kg group): 22.00 ± 0.82 g | Final body weight ([2]; XBB-023 96 mg/kg): 16.00 ± 2.31 g

CC(=O)O[C@@]12CO[C@@H]1C[C@H](O)[C@@]1(C)C(=O)[C@H](O)C3=C(C)[C@@H](OC(=O)[C@H](O)[C@@H](NC(=O)OC(C)(C)C)c4ccccc4)C[C@@](O)([C@@H](OC(=O)c4ccccc4)[C@H]21)C3(C)C [Docetaxel]
Tumor volume ([1]; Docetaxel 10 mg/kg group, 0 d (baseline)): 100.58 ± 20.87 mm^3 | Tumor inhibition rate ([1]; Docetaxel 10 mg/kg, once every 3 days, 7 doses): 72.16% | Tumor inhibition rate ([1]; Docetaxel 10 mg/kg, once every 3 days, 7 doses, listed as docetaxel): 72.16% | Tumor weight ([1]; Docetaxel 10 mg/kg, once every 3 days): 0.33 ± 0.15 g | RTV (relative tumor volume) [1, 26]: 2.40 ± 0.99 | T/C (relative tumor growth rate) [1, 26]: 21.15% | Tumor volume [1, 26]: 226.65 ± 56.45* mm^3 | T/C (relative tumor growth rate) ([1]; Docetaxel 10 mg/kg, tail vein, once every 3 days, 7 doses, 21 d, listed as docetaxel): 21.15% | RTV (relative tumor volume) [1, 27]: 1.62 ± 0.37 | T/C (relative tumor growth rate) [1, 27]: 56.09% | Tumor volume [1, 27]: 157.30 ± 26.48** mm^3 | RTV (relative tumor volume) [1, 28]: 1.49 ± 0.39 | T/C (relative tumor growth rate) [1, 28]: 41.39% | Tumor volume [1, 28]: 147.47 ± 41.99** mm^3 | RTV (relative tumor volume) [1, 29]: 1.59 ± 0.47 | T/C (relative tumor growth rate) [1, 29]: 34.23% | Tumor volume [1, 29]: 155.55 ± 44.12** mm^3 | RTV (relative tumor volume) [1, 30]: 2.15 ± 0.81 | T/C (relative tumor growth rate) [1, 30]: 33.77% | Tumor volume [1, 30]: 208.93 ± 68.26** mm^3 | RTV (relative tumor volume) [1, 31]: 2.24 ± 0.43 | T/C (relative tumor growth rate) [1, 31]: 26.80% | Tumor volume [1, 31]: 224.22 ± 57.63** mm^3 | RTV (relative tumor volume) [1, 32]: 1.87 ± 0.28 | T/C (relative tumor growth rate) [1, 32]: 19.30% | Tumor volume [1, 32]: 186.80 ± 42.03** mm^3 | effect on the body weight of the experimental mice (in words) ([2]; 10 mg/kg docetaxel, P<0.01): Extremely significant effect | Initial body weight ([2]; Docetaxel 10 mg/kg group): 22.50 ± 1.26 g | Final body weight ([2]; Docetaxel 10 mg/kg): 15.17 ± 0.90 g | oral bioavailability [3]: less than 8% | intracellular concentration higher than that of paclitaxel [4]: 3 times
